According to PMC8901753, “An ultrasensitive microfluidic approach reveals correlations between the physico-chemical and biological activity of experimental peptide antibiotics” (Scientific Reports, 2022):

Assays:
[1] = test system: E. coli BW25113 cells; test: Mother-machine microfluidics-microscopy single-cell assay; format: cell-based, Escherichia coli; settings: for cell division during peptide treatment / coefficient of variation (CV) in the cell lengths / Lmean 3h (mean cell length normalized to initial cell length) / survival fraction (fraction of wells hosting dividing cells after peptide treatment and overnight LB) / increase in cell length on average before cell death: 10 μM peptide; for cell division during peptide treatment: 3 h, measured per well; for coefficient of variation (CV) in the cell lengths: 3 h time point, susceptible cells, 20 cells from 2 repeats (bienA9: 5 cells, 1 experiment); for Lmean 3h (mean cell length normalized to initial cell length): 3 h time-point, mean ± std. dev.; for Lmean 3h (mean cell length normalized to initial cell length) / increase in cell length on average before cell death: susceptible cells killed before dividing; for survival fraction (fraction of wells hosting dividing cells after peptide treatment and overnight LB): continuous flow 3 h, then LB overnight (17–18 h), stationary phase cells, mean ± std. dev. over 2 biological repeats; for No. of non-dividing survivors at the end of the experiments: 10 M [sic] peptide, cells that did not divide and did not stain with propidium iodide, out of 305–323 initial cells
Text: The “mother-machine” system (Fig. 1A) enables the physical confinement of individual bacteria in well-controlled microenvironments, where they can be sequentially exposed to nutrients, drugs or viability indicators and the responses studied using time-lapse microscopy[28]–[30]. This technology has been used extensively to study bacterial-drug interactions, using a range of conventional small-molecule antibiotics such as ampicillin, gentamicin, ciprofloxacin (amongst others)[28],[30]–[33], phages[34] as well as novel protein pseudocapsid based antibacterials. Briefly E. coli BW25113 cells were cultured overnight in Lysogeny Broth (LB) at 37 °C to stationary phase and injected into the mother-machine microfluidic device (see “Experimental section” and[28],[29],[31],[32]). We waited for the cells to populate the “wells” of the chip (Fig. 1), following which the trapped cells were challenged with a continuous flow of peptide (10 μM) for 3 h, with images taken hourly. After 3 h of treatment, the cells were provided with fresh LB to study survivors. Post overnight (O/N) LB treatment, dead staining was performed with propidium iodide (PI). Dead cells either lysed or took up PI and appeared bright under fluorescence illumination (Fig. 1B). […] However, the cells that were dividing at the end of the experiment were unambiguously alive. Therefore, we chose to use only these dividing cells in our quantitative analysis discussed below.
Thus, reaching a critical peptide length leads to increased antibacterial activity with the bienA peptides. […] For bienK10 and bienK11, the survival fractions were 56 ± 26% (204 wells, 305 cells) and 31 ± 18% (215 wells, 311 cells) respectively (Fig. 2B), markedly different from the bienA10 and bienA11 results (Fig. 2A). Thus for these bienK peptides, while some individual cells were killed by the peptides, a large number of other clonal relatives survived the exact same conditions, similar to the example shown in Fig. 1. […] Our results reveal important phenotypic variants seemingly oblivious to the effects of these polypeptide antibiotics that are able to grow and divide even during treatment, while their clonal relatives perish. We also observed similar trends when quantifying the cellular division rates in response to the peptides (Fig. 2C,D). […] Again, as with the survival fractions, this peptide length dependence was not observed for the cellular division rates with the bienK series (Fig. 2D).
The Escherichia coli (BW25113) cultures were prepared in 150 mL of Lysogeny Broth (LB; 10 g/L tryptone, 5 g/L yeast extract and 10 g/L NaCl, Melford) with shaking at 200 rpm and incubation at 37 °C overnight (drug dosage during experiments was typically performed around 19–20 h after starting the culture). Prior to seeding in the microfluidic chip, the OD (optical density) of the culture was measured, the cells spun down at 3220g for 5 min and the supernatant filtered twice (0.22 µm, Millipore); this twice filtered supernatant is hereafter referred to as “spent LB”. All OD measurements were carried out at 600 nm. The cell pellet was resuspended in spent LB at an approximate OD of 75; this concentrated stationary phase culture was used when seeding the microfluidic chip with bacteria. Note, the OD of 75 is a theoretical value—we measure the OD of the original stationary phase culture, and calculate the volume of spent LB that the cell pellet (post centrifugation) is to be resuspended in to achieve this OD. In practical terms, one simply needs to concentrate the culture to optimise the efficiency of cells entering the wells of the mother-machine microfluidic device within a 30 min timeframe. We also note that unlike most traditional bulk experiments, we chose to study cells initially seeded in the microfluidic device in stationary phase, in line with previous studies using this platform[30]–[32],[34]. […]

[2] = Single-GUV dye (HPTS) leakage assay, membranolytic activity; settings: for vesicle survival rate: continuous flow, after 7 h, PBS pH 7.4, mean ± std. dev., 2 independent repeats; for mode of action from time distribution of single-GUV leakage events: 5 and 10 μM peptide
Text: Given this variability in the cellular responses to treatment, we hypothesized that cell-to-cell differences at the membrane level could underlie the observed heterogeneity in the bacterial responses to these novel peptides. We therefore used anionic giant unilamellar vesicles (GUVs) as highly controlled model membranes to study the membranolytic activity of the bienA and bienK peptides. The vesicles were produced in a microfluidic chip using octanol-assisted liposome assembly (OLA)[40] and made with a 3:1 mixture of 1,2-dioleoyl-sn-glycero-3-phosphocholine (DOPC) and 1,2-dioleoyl-sn-glycero-3- phospho-rac-(1-glycerol) sodium salt (DOPG) to mimic the anionic charge of bacterial membranes[27] (Fig. 4). We note that E. coli membranes are estimated to be ~ 20% PG, and that lipids of the inner membrane in particular contain a high proportion (over 95%) of phospholipids, similar to our phospholipid-based GUV models. The more complex E. coli outer membrane includes both phospholipids and glycolipids. […] In particular, in a direct comparison, AMP induced membrane permeabilisation was similar across GUVs and E. coli inner (cytoplasmic) membranes, albeit with some interesting dissimilarities in a few specific details. In our assay, the GUVs were formed encapsulating a membrane impermeable dye, HPTS (8-hydroxypyrene-1,3,6-trisulfonic acid) and immobilized using an array of physical traps; the peptide solution was then flowed over them using a continuous flow system.
Figure 4 Schematic of the integrated GUV production, trapping and perfusion platform. GUVs are produced using octanol-assisted liposome assembly at a 6-way junction as described elsewhere. Briefly, lipids dissolved in octanol (the “LO” phase) are brought together at the junction with inner aqueous (IA) and outer aqueous (OA) streams, leading to the production of GUVs hosting octanol droplets. The octanol droplets bud off the GUVs downstream. This mixture of GUVs and octanol droplets is distributed into an array of trapping chambers via a connector chip, which additionally facilitates the separation of the GUVs and octanol droplets (for details, please see Al Nahas et al. Lab Chip 2019[27]). The trapped vesicles contain the membrane-impermeable fluorescent dye HPTS. Post-trapping, the GUVs are subjected to a continuous flow of peptides, and the membranolytic efficacy of the peptides is determined by studying the leakage of the fluorescent dye from the interior of the GUVs via video fluorescence microscopy.
We have published detailed protocols for the design, fabrication and operation of the microfluidic device for immobilizing and testing thousands of individual GUVs, which can be found elsewhere[23],[27]. A detailed protocol for the octanol-assisted liposome assembly (OLA) technique of producing GUVs on chip is also available. Briefly, our platform facilitated three procedural steps integrated in a single device. First, the OLA[40] technique was used to prepare GUVs. Next, the GUVs were trapped downstream in arrays of hydrodynamic posts. Finally, the immobilized GUVs were perfused with the desired dose of a peptide. All lipids described in the text were purchased from Avanti Polar Lipids. The GUVs were prepared in sucrose solution (200 mM) with glycerol (15% v/v) in PBS (pH 7.4). The vesicles were formed encapsulating the fluorescent membrane-impermeable dye 8-hydroxypyrene-1,3,6-trisulfonic acid from Thermo Fisher (HPTS, 50 μM). The microfluidic platform was operated by two positive pressure-driven pump modules (MFCS-4C, Fluigent), and a single neMESYS syringe pump module for fluid manipulation. The trapped GUVs were continuously dosed with buffer solution loaded with 5 μM HPTS (as a tracer) and the peptide of interest at 5 or 10 μM concentrations (the stock peptide solutions were prepared in milliQ water as described previously). […]

Sequence: RLLRLALRL [bienA9, ultrashort amphipathic helix peptide with binary encoding by arginine and leucine, alanine at the mutation position]
- cell division during peptide treatment [1]: did not
- coefficient of variation (CV) in the cell lengths [1]: 17%
- Lmean 3h (mean cell length normalized to initial cell length) [1]: 0.9 ± 0.2
- survival fraction (fraction of wells hosting dividing cells after peptide treatment and overnight LB) [1]: 65 ± 11%
- survival fraction (fraction of wells hosting dividing cells after peptide treatment and overnight LB) ([1]; listed as BienA9): over 50%
- No. of non-dividing survivors at the end of the experiments [1]: 11
- vesicle survival rate ([2]; 5 μM peptide): 41 ± 3%
- vesicle survival rate ([2]; 10 μM peptide): 19.9 ± 0.5%
- mode of action from time distribution of single-GUV leakage events [2]: bimodal all-or-none mode

Sequence: RLLRLALRLL [bienA10, ultrashort amphipathic helix peptide with binary encoding by arginine and leucine, alanine at the mutation position]
- cell division during peptide treatment [1]: immediately and uniformly arrested cell division
- coefficient of variation (CV) in the cell lengths [1]: 16%
- Lmean 3h (mean cell length normalized to initial cell length) [1]: 1.2 ± 0.2
- survival fraction (fraction of wells hosting dividing cells after peptide treatment and overnight LB) [1]: less than 5%
- increase in cell length on average before cell death [1]: 20%
- No. of non-dividing survivors at the end of the experiments [1]: 6
- vesicle survival rate ([2]; 5 μM peptide): 12 ± 2%
- vesicle survival rate ([2]; 10 μM peptide): complete disruption of the entire vesicle population
- vesicle survival rate ([2]; 10 μM peptide, listed as A10): 0%
- mode of action from time distribution of single-GUV leakage events [2]: unimodal “graded” mode of action

Sequence: RLLRLALRLLR [bienA11, ultrashort amphipathic helix peptide with binary encoding by arginine and leucine, alanine at the mutation position]
- cell division during peptide treatment [1]: immediately and uniformly arrested cell division
- coefficient of variation (CV) in the cell lengths [1]: 16%
- Lmean 3h (mean cell length normalized to initial cell length) [1]: 1.2 ± 0.2
- survival fraction (fraction of wells hosting dividing cells after peptide treatment and overnight LB) [1]: less than 5%
- survival fraction (fraction of wells hosting dividing cells after peptide treatment and overnight LB) ([1]; listed as A11): 0%
- increase in cell length on average before cell death [1]: 20%
- No. of non-dividing survivors at the end of the experiments [1]: 24
- vesicle survival rate ([2]; 5 μM peptide): 1 ± 1%
- vesicle survival rate ([2]; 10 μM peptide): complete disruption of the entire vesicle population
- vesicle survival rate ([2]; 10 μM peptide, listed as A11): 0%
- mode of action from time distribution of single-GUV leakage events [2]: unimodal “graded” mode of action

Sequence: RLLRLKLRL [bienK9, ultrashort amphipathic helix peptide with binary encoding by arginine and leucine, lysine at the mutation position]
- coefficient of variation (CV) in the cell lengths [1]: 44%
- Lmean 3h (mean cell length normalized to initial cell length) [1]: 2.0 ± 0.9
- No. of non-dividing survivors at the end of the experiments [1]: 13
- vesicle survival rate ([2]; 5 μM peptide): 41 ± 20%
- vesicle survival rate ([2]; 10 μM peptide): 47 ± 7%

Sequence: RLLRLKLRLL [bienK10, ultrashort amphipathic helix peptide with binary encoding by arginine and leucine, lysine at the mutation position]
- coefficient of variation (CV) in the cell lengths [1]: 47%
- Lmean 3h (mean cell length normalized to initial cell length) [1]: 2.0 ± 0.9
- No. of non-dividing survivors at the end of the experiments [1]: 7
- vesicle survival rate ([2]; 5 μM peptide): 40 ± 7%
- vesicle survival rate ([2]; 10 μM peptide): 48 ± 10%

Sequence: RLLRLKLRLLR [bienK11, ultrashort amphipathic helix peptide with binary encoding by arginine and leucine, lysine at the mutation position]
- coefficient of variation (CV) in the cell lengths [1]: 48%
- Lmean 3h (mean cell length normalized to initial cell length) [1]: 1.8 ± 0.9
- survival fraction (fraction of wells hosting dividing cells after peptide treatment and overnight LB) [1]: 31 ± 18%
- No. of non-dividing survivors at the end of the experiments [1]: 1
- vesicle survival rate ([2]; 5 μM peptide): 70 ± 13%
- vesicle survival rate ([2]; 10 μM peptide): 78 ± 4%
